Source: the supplement of paper PMC10307832

How the values were obtained:
Assay in all cases: relative viability (nuclei count vs DMSO), 5 days (fraction); higher = more cells survive
[1] = compound: CCN(CC)CCNC(=O)c1c(C)[nH]c(/C=C2\C(=O)Nc3ccc(F)cc32)c1C [Sunitinib] + CC(=O)c1c(C)c2cnc(Nc3ccc(N4CCNCC4)cn3)nc2n(C2CCCC2)c1=O [Palbociclib] (partner 0.5 µM)
In short: (§1)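 Lung cancer cell lines in 1536-well plates were dosed by pin tool the day after seeding, either with one drug alone or with a fixed anchor-drug dose plus five library-drug doses (not always all listed) in √10 steps. After 5 days, cells were fixed and their nuclei stained in one step (final 0.05% Triton X-100, 1% formaldehyde, 1 ug/ml Hoechst), then counted on 4× images. Relative viability is the nuclei count in treated wells divided by that in vehicle wells. Values are medians of duplicate plates.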

[2] = compound: CCN(CC)CCNC(=O)c1c(C)[nH]c(/C=C2\C(=O)Nc3ccc(F)cc32)c1C [Sunitinib] + C[C@@H](Oc1cc(-c2cnn(C3CCNCC3)c2)cnc1N)c1c(Cl)ccc(F)c1Cl [Crizotinib] (partner 1 µM)
In short: as §1

[3] = compound: CCN(CC)CCNC(=O)c1c(C)[nH]c(/C=C2\C(=O)Nc3ccc(F)cc32)c1C [Sunitinib] + NC(=O)Nc1cc(-c2cccc(F)c2)sc1C(=O)N[C@H]1CCCNC1 [AZD7762] (partner 0.2 µM)
In short: as §1

[4] = compound: CCN(CC)CCNC(=O)c1c(C)[nH]c(/C=C2\C(=O)Nc3ccc(F)cc32)c1C [Sunitinib] + O=C(CCCCCCC(=O)Nc1ccccc1)NO [Vorinostat] (partner 1 µM)
In short: as §1

Cell Line	relative viability ([1]; first compound 0.02 µM)	relative viability ([1]; first compound 0.06325 µM)	relative viability ([1]; first compound 0.2 µM)	relative viability ([1]; first compound 0.6325 µM)	relative viability ([1]; first compound 2 µM)	relative viability ([2]; first compound 0.02 µM)	relative viability ([2]; first compound 0.06325 µM)	relative viability ([2]; first compound 0.2 µM)	relative viability ([2]; first compound 0.6325 µM)	relative viability ([3]; first compound 0.02 µM)	relative viability ([3]; first compound 0.06325 µM)	relative viability ([3]; first compound 0.2 µM)	relative viability ([3]; first compound 0.6325 µM)	relative viability ([3]; first compound 2 µM)	relative viability ([4]; first compound 0.02 µM)	relative viability ([4]; first compound 0.06325 µM)	relative viability ([4]; first compound 0.2 µM)	relative viability ([4]; first compound 0.6325 µM)	relative viability ([4]; first compound 2 µM)	relative viability ([2]; first compound 2 µM)
HARA	0.268	0.257	0.201	0.246	0.275	1.02	1.11	1.41	1.19	0.355	0.337	0.582	0.29	0.301	0.525	0.518	0.687	0.441	0.553	–
HCC-15	0.707	0.737	0.792	0.696	0.715	0.761	0.84	0.958	0.86	1.17	1.28	1.37	1.09	1.41	0.905	0.93	0.984	0.789	0.85	0.859
HCC-44	–	–	1.01	0.925	1.01	0.874	0.784	0.937	0.859	1.05	1.08	1.01	1.01	1.05	1.15	1.09	1.15	1.09	1.14	0.774
HCC-78	0.486	0.504	0.498	0.472	0.526	0.299	–	0.348	–	0.554	0.609	0.727	0.485	0.713	0.427	0.418	0.531	0.481	0.465	0.365
HCC-366	0.342	0.393	0.652	0.413	0.409	0.559	0.519	1.02	0.593	0.241	0.207	0.379	0.238	0.216	0.326	0.388	0.487	0.442	0.468	0.551
HCC-827	0.487	0.506	0.542	0.478	0.534	0.911	0.964	0.965	0.939	0.249	0.191	0.21	0.174	0.207	0.843	0.861	0.668	0.875	0.714	0.947
HOP-62	0.381	0.485	0.496	0.427	0.533	0.862	1.23	0.971	–	0.579	0.675	0.874	0.688	0.85	0.675	0.876	0.744	0.761	0.838	1.03
LC-2-ad	0.491	0.481	0.593	0.48	0.42	0.446	0.554	0.452	0.521	0.796	0.889	0.983	0.844	0.873	0.673	0.767	0.774	0.799	0.698	0.534
LCLC-97TM1	0.209	0.268	0.279	0.229	0.231	0.347	0.384	–	0.319	0.265	0.163	0.234	0.224	0.288	0.638	0.943	0.713	0.887	0.768	0.362
LCLC-103H	0.499	0.488	0.484	0.495	0.52	1.01	1.09	1.17	1.05	0.808	0.786	0.89	0.925	0.851	0.778	0.918	0.868	0.827	0.867	1.06
LK-2	0.563	–	0.681	0.586	0.642	0.203	0.265	0.203	0.23	0.35	0.571	0.352	0.414	0.443	0.259	0.391	0.311	0.253	0.413	0.231
LOU-NH91	0.592	0.536	0.562	0.473	0.555	0.733	0.732	0.789	0.71	–	0.688	0.879	0.831	0.756	0.928	0.96	0.997	1	0.884	0.746
LU99A	0.338	0.473	0.417	0.433	0.442	0.517	0.524	0.605	0.764	0.334	0.311	0.343	0.325	0.368	0.468	0.625	0.514	0.516	0.44	0.674
LXF-289	0.599	0.621	0.597	0.619	0.603	0.771	0.811	0.913	0.8	1.08	1.16	1.14	1.19	1.08	0.688	0.857	0.824	0.779	0.752	–
NCI-H23	0.469	0.599	0.488	0.532	0.49	0.478	0.477	0.854	0.548	0.287	0.281	0.36	0.226	0.241	0.625	0.841	0.686	0.665	0.674	0.527
NCI-H322M	0.454	0.48	0.479	0.461	0.497	0.845	0.891	0.951	0.891	0.611	0.559	0.524	0.651	0.64	0.9	0.807	0.931	0.847	0.702	1.08
NCI-H358	0.138	0.158	0.138	0.132	0.125	0.722	0.652	0.562	0.642	0.59	0.596	0.637	0.427	0.449	0.588	0.684	0.79	0.77	0.419	0.508
